Assay results: patent US9180160B2, “Complement inhibitors for treatment of injury from intracerebral hemorrhage” (The Trustees of the University of Pennsylvania, priority 2008, dated 2015)

How the values were obtained:
[1] = test system: C57BL/6J mice subjected to ICH; experiment: Morris water-maze test (MWM) after ICH; type: in vivo; conditions: then twice daily, 72 hours after ICH, mean±SEM
Method: (§1) Animal Preparation and Intracerebral Infusion. Adult male C57BL/6J mice weighing 23-30 g were used. Mice were randomized to receive intraperitoneal injection of either C3aRA (1 mg/kg) (SB290157, Calbiochem, Darmstadt, Germany) diluted in PBS and DMSO (1.16% v/v), or an equal volume of vehicle (PBS and DMSO, 1.16% DMSO v/v) either 45 minutes prior to ICH induction or 6 and 12 hours after induction of ICH, followed in both cohorts by twice daily doses for 72 hours. […] Sham animals were given PBS and DMSO (1.16% v/v) in the same manner.
(§2) Mice were anesthetized with a single intraperitoneal dose of ketamine (90 mg/kg) and xylazine (5 mg/kg). […]
(§3) Neurofunction and behavioral testing. Sensorimotor function was evaluated by means of the 28-point neurological function score, corner test and forelimb placing tests, which were performed pre-operatively and at 6, 24, 48 and 72 hour post-injury. Navigational memory was evaluated with the means of a Morris water-maze (MWM) test pre-operatively and at 72 hours post ICH. […]
Morris water-maze test (MWM). […] The time, in seconds, spent by each animal to find the platform was recorded. […] The time spent in the quadrant where the platform had been situated before was recorded. […]

[2] = test system: C57BL/6J mice subjected to ICH; experiment: Forelimb placing test after ICH; type: in vivo; conditions: 1 mg/kg i.p. 45 minutes prior to ICH, then twice daily; 72 hours after ICH
Method: as §1, §2, §3
Forelimb placing test. […] Each animal was tested 10 times for each forelimb, and the percentage of trials in which the mouse placed the appropriate forelimb on the edge of the table after vibrissae stimulation was determined.

NC(N)=NCCC[C@H](NC(=O)COCC(c1ccccc1)c1ccccc1)C(=O)O [C3aRA]
MWM time spent in the target quadrant ([1]; 1 mg/kg i.p. 45 minutes prior to ICH): 19.62 ± 1.08 s
MWM time spent in the target quadrant ([1]; 1 mg/kg i.p. first at 6 h and 12 h after ICH): 18.9 ± 1.3 s
forelimb placing capacity in the impaired limb [2]: no significant deficits compared with sham animals
